Experimental data reported in US7527971B2, “Adult stem cell lines” (Vitro Diagnostics, Inc., priority 2004, dated 2009).
Ends that are not written are not given here.

Columns and labels:
VIT4-G9 cells [1] = assay: Effect of nicotinamide on prevalence of ILCC in VIT4-G9 cultures; format: cell-based, human; settings: 10 mM nicotinamide
Description: A general principle of developmental cell biology is that cellular differentiation and growth are at least partially exclusive of each other. High rates of cellular proliferation usually occur in the absence of differentiation, while differentiation usually requires quiescence or low rates of cell proliferation. Initial observations of the clonal cell line VIT4-G9 were consistent with this concept since pancreatic hormone-containing ILCC only appeared at later stages of culture following slower cell growth as a consequence of confluence and possibly contact inhibition.

VIT1 cells [2] = assay: IHC analysis of insulin or Ep-CAM positive cells in VIT1 culture exposed to nicotinamide; format: cell-based, human; settings: 10 mM nicotinamide, 5-day exposure
VIT4-G9 cells [3] = assay: Insulin secretion from VIT4-G9 cultures after growth/differentiation conditions; format: cell-based, human
Experimental: ILCC were examined to determine the level of insulin content and its secretion by use an immunoassay specific to human insulin (Linco Research, Catalog Number EZHI-14K). Since the growth medium contains recombinant human insulin, tissues were extensively washed with PBS prior to determination of secretion. ILCC were acutely maintained in a physiological saline solution (140 mM NaCl, 5 mM KCl, 5 mM CaCl2, 0.5% BSA, 1 mM sodium pyruvate, 2 mM glucose, and 10 mM HEPES, pH 7.4). […] The control solution contained 2 mM glucose, the elevated glucose solution was identical but contained 20 mM glucose, and the elevated K^+ solution contained 50 mM K^+, while the other constituents were identical to the control solution. The physiological saline solution was collected following centrifugation (10 minutes at 470×g) and frozen at −20° C. for later analysis. The remaining ILCC were lyzed in 10 mM Tris, 1 mM EDTA and 10% glycerol; the pellet was extracted overnight at 4° C. in 70% ethanol, 0.18 mM HCl and the extract was dried using Model DNA 110 Speed Vac (Savant, Inc.). The dried extract was reconstituted in 100 μl PBS prior to assay for insulin content. […] For example, glucose-stimulated insulin secretion requires expression of functional glucose transporter protein and glucokinase in addition to insulin. […]

VIT1 cells [4] = assay: Induction of ILCC, insulin and Ep-CAM in VIT1 cells by GLP-1 (IHC); format: cell-based, human
Experimental: VIT1 cells were cultured and expanded through multiple passages as described in Example 2, “Cell Growth Analysis”. The culture medium used for expansion was VitroPlus II, (Vitro Diagnostics, Inc, Catalog Number VC03014) containing 10 nM GLP-1 (1-37) (Bachem, Catalog Number H-5552). Different cultures were expanded for 11 to 20 days encompassing two to five passages prior to immunohistochemical determination of insulin or Ep-CAM. A negative control culture that was expanded in VitroPlus II without added GLP-1 through 6 passages (24 days) prior to IHC determination of insulin. Insulin and Ep-CAM presence within these cultures was determined by fixation of the cultured cells in 1% glutaraldehyde, overnight incubation with insulin MAB (Sigma Chemical Co, Catalog Number I2018) at 1/1000 dilution in PBS or Ep-CAM, (Epithelial Specific Antigen) MAB (Biogenesis, Catalog Number 4240-4009) at 1/200 dilution in PBS followed by washout and incubation with an HRP-conjugated secondary antibody (Goat-anti-mouse-HRP (Jackson ImmunoResearch Laboratories, Inc., Catalog Number 115-035-062) at 37° C. for 30 minutes. Following washout of the secondary antibody, the fixed cells were then incubated for 15 minutes in diaminobenzidine (Sigma Chemical Co, Catalog Number D-4293), and the stained cultures were examined by phase-contrast microscopy and photographed. […]

[5] = test system: primary cultures of dispersed human pancreatic cells; assay: Effect of HGF on ILCC growth and morphology in primary cultures; format: cell-based
Experimental: The effects of hepatocyte growth factor (HGF; PeproTech, Inc. Catalog Number 100-39) were determined by addition to the growth medium described above at a final concentration of 30 ng/ml. […] The acute effects of HGF on ILCC growth and morphology were determined and longer-term experiments were conducted as follows. The sample consisted of a cryopreserved, non-settled fraction of cells resulting from sub-culture of ILCC from the first passage of the culture of human pancreatic dispersed cells prepared as described above. The frozen cells were rapidly thawed, cryopreservative was washed out and the cells were plated at 10,000/cm^2 during the second passage. Cultures were exposed to 30 ng/ml HGF or control medium without added HGF and the cultures were expanded through 4 passages. Thereafter, both the control and HGF cultures were maintained and expanded through 8 passages using growth medium without added HGF. The number of ILCC in these cultures was determined by microscopic inspection.
To determine if ILCC cultures were affected by environmental conditions, the effect of HGF exposure was determined as described above (See: Methods). HGF is known to be mitogenic to beta cells, increases beta cell mass and total insulin production in vivo (Gracia-Ocana, et. al, 2000). HGF is also a known survival factor for a variety of cells (Dai, et. al, 2003). […]

In the case of NC(=O)c1cccnc1 [nicotinamide], the “Increase in prevalence of ILCC” value (VIT4-G9 cells [1]) is reported as “about 5 fold”, the “Number of insulin or Ep-CAM positive cells by IHC” value (VIT1 cells [2]) is reported as “did not appear to change” and the “Glucose-stimulated insulin secretion: requirement in differentiation phase” value (VIT4-G9 cells [3]; 10 mM nicotinamide in 0.5% FBS VitroPlus II, 6 days) is reported as “necessary”.
In the case of “glucagon-like peptide 1 (HAEGTFTSDVSSYLEGQAAKEFIAWLVKGR; ends and bridges not checked; UniProt P01275 98-127, looked up) [GLP-1, GLP-1 (1-37) (Bachem, Catalog Number H-5552)]”, the “Ep-CAM expression by IHC” value (VIT1 cells [4]; 10 nM GLP-1) is reported as “induced”, the “Reduction of ILCC frequency in negative control culture lacking GLP-1” value (VIT1 cells [4]; 10 nM GLP-1 in VitroPlus II versus no GLP-1) is reported as “thousand-fold” and the “Glucose-stimulated insulin secretion: requirement during growth phase” value (VIT4-G9 cells [3]; GLP-1 in VitroPlus II, 5 days) is reported as “necessary”.
For hepatocyte growth factor [HGF], the “Increase in number of ILCC” value ([5]; 30 ng/ml HGF during passages 2 through 4, counted at early pass 7) was about 5 fold and the “Morphology of ILCC” value ([5]; 30 ng/ml HGF, short time of exposure, reversed when HGF removed) was “shift in the morphology of ILCC from larger islets containing small cells to more loosely attached, smaller islets composed of larger cells”.
